Tests used:
[1] = Drug permeability test using human skin, Franz type cell, LC/MS/MS; format: in vitro ADME; settings: preparation of Example 3 (70 μg/cm^2, oleyl alcohol), slope of cumulative permeation quantities, FIG. 4, n=3
Procedure: Drug permeability test using human skin Human skin purchased from Asterand (abdominal skin of a person, epidermal-dermal skin (no heat treatment), n=3) was attached to a Franz type cell (1.78 cm^2), and the pharmaceutical preparation produced in Example 3 was applied to the stratum corneum side. Physiological saline (8 ml) was applied to the dermal layer side cell. From the dermal layer side cell, 1 ml portion thereof was periodically collected, and the compound A and compound B were determined by LC/MS/MS method under the following conditions. Cumulative permeation quantities until 48 hours were determined to calculate average values.
LC/MS/MS Measuring Conditions (HPLC)
Measuring instrument: Perkin-Elmer Series 200 Micro-pumps and CTC […]
Flow rate: 300 μl/minute Injection quantity: 5 μl Running time: 4.5 minutes Retention time: compound A; until 3.45 minutes/compound B; until 3.25 minutes Mass spectrometry […]
Human skin permeability of compound A and compound B which is its active form was measured to calculate the cumulative permeation quantities, with the results shown in FIG. 4. Their skin permeation rates were calculated from the slope of cumulative permeation quantities in FIG. 4. […]
FIG. 4 is a result of a human skin permeability test which used the pharmaceutical preparations produced in Example 3. It represents cumulatively detected amounts of compound A and compound B.

[2] = In vitro skin permeability test (1), Franz type cell; format: in vitro ADME, rat; settings: for cumulative permeation quantity until 24 hours: patch (pharmaceutical preparation 1A, 0.2 mg/cm^2) on rat abdominal skin, determined as compound B or PGE1, FIG. 1
Procedure: The hair-removed skin extracted from the abdominal region of each of male Wister rats (7 weeks of age, Wister/Slc, n=3) was attached to a Franz type cell (1.1 cm in diameter). The aforementioned pharmaceutical preparation 1A prepared in Example 1 was applied to the stratum corneum of the hair-removed skin extracted from the abdominal region. Hanks' buffer (HBSS) (Sigma, pH 7.4) was applied to the dermal layer side cell. HBSS (200 μL) was periodically collected from the dermal layer side cell, and compound B as the active form of compound A or PGE1 was determined by the HPLC method under the following conditions. Cumulative permeation quantities until 24 hours were determined to calculate average values.
Compound A (Active Form: Compound B)
Column: YMC-Pack ODS A-302 (4.6 mm I.d., 150 mm),
Column temperature: 50° C.,
Moving bed: 0.1% phosphoric acid aqueous solution: acetonitrile=7:3,
Detection wavelength: 220 nm,
Internal standard: ethyl p-hydroxybenzoate.
Column temperature: 30° C.,
Moving bed: 0.02 M potassium hydrogenphosphate aqueous solution:acetonitrile=3:2,
Detection wavelength: 205 nm,
Internal standard: n-propyl p-hydroxybenzoate.
FIG. 1 is a result of the in vitro skin permeability test (1) in Test Example (1) of Biological Examples. The cumulative permeation quantity of compound A represents a value calculated by converting the detected value of compound B into compound A.

## COCc1cccc(C[C@H](O)/C=C/[C@H]2[C@H](O)CC(=O)[C@@H]2CCSCCCC(=O)O)c1 [compound B, 4-{[2-((1R,2R,3R)-3-hydroxy-2-{(1E,3S)-3-hydroxy-4-[3-(methoxymethyl)phenyl]but-1-enyl}-5-oxocyclopentyl)ethyl]sulfanyl}butanoic acid]
[1]
  skin permeation rate: 0.07±0.01 μg/cm^2/hr

## COCc1cccc(C[C@H](O)/C=C/[C@H]2[C@H](O)CC(=O)[C@@H]2CCSCCCC(=O)OC)c1 [compound A, methyl 4-{[2-((1R,2R,3R)-3-hydroxy-2-{(1E,3S)-3-hydroxy-4-[3-(methoxymethyl)phenyl]but-1-enyl}-5-oxocyclopentyl)ethyl]sulfanyl}butanoate]
[2]; HBSS pH 7.4
  cumulative permeation quantity until 24 hours: high cumulative permeation quantity was obtained
[2]; patch preparation 1A on rat abdominal skin
  conversion of compound A into the active form, compound B, during permeation through the skin: completely converted
[2]; patch preparation 1A on rat abdominal skin, HBSS pH 7.4
  compound A in the dermal layer side cell: not detected
[1]
  skin permeation rate: 0.16±0.04 μg/cm^2/hr

## CCCCC[C@H](O)/C=C/[C@H]1[C@H](O)CC(=O)[C@@H]1CCCCCCC(=O)O [PGE1, reference compound]
[2]; HBSS pH 7.4
  cumulative permeation quantity until 24 hours: high cumulative permeation quantity was not obtained

Source: patent US20090074844A1, “TRENADERMAL ABSORPTION PREPARATION” (ONO PHARMACEUTICAL CO., LTD., priority 2005, published 2009)
